In US4318916A, “Antibiotic PS-5 and derivatives having β-lactamase inhibitory activity and production thereof” (Sanraku-Ocean Co., Ltd., priority 1977, dated 1982):
Converted amounts (≈) assume the structure as drawn. Read-outs that look alike come from different tables or passages of the source.

Legend:
[1] = tested on: Enterobacter aerogenes E-19; assay: MIC by broth dilution (Table 13); type: cell-based; settings: Klebsiella aerogenes, E19, 20 h
How it was run: (§1)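 Broth dilution in Brain Heart Infusion broth, with reading after 20 hours of incubation at 35° C. MIC is the lowest compound concentration giving no visible growth. Ampicillin and cephaloridine controls were prepared in the same broth (pH 7.0) and handled identically.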

[2] = tested on: Enterobacter cloacae E-16; assay: MIC by broth dilution (Table 13); type: cell-based; settings: E16, 20 h
How it was run: as §1

Serratia marcescens S-18 = assay: MIC by broth dilution (Table 13); type: cell-based; settings: S18, 20 h
How it was run: as §1

Citrobacter freundii E-9 [3] = assay: Potentiation disc assay of trityl ester (Table 14); type: cell-based; settings: for Halo of inhibition Cephaloridine added: 50 μg/ml cephaloridine in base agar
Procedure: (§2) (A) Assay Petri dishes (9 cm in diameter) containing resistant microorganisms were prepared by overlaying 10 ml of the molten nutrient agar seeded with beta-lactam-resistant (beta-lactamase-producing) microorganisms, on the solid base layer of nutrient agar (pH 7.0) (15 ml) containing 50 μg/ml of penicillin G or cephaloridine. As described before, the antibiotic solutions to be tested were applied in a 25 μl amount on an 8 mm pulp disc and placed on the said assay dishes. After incubation for 18 hours at 35° C., the inhibition halos were measured and compared with the results on the corresponding assay dished containing neither penicillin G nor cephaloridine. From the data in Table 14, it is very clear that the combination of the tritylation product of antibiotic PS-5 at a concentration below the lower limit of disc assay, with penicillin G or cephaloridine, at a concentration below said limit, produced a significant halo of inhibition. This fact clearly proves the potentiation of the antibiotic activity of penicillin G or cephaloridine with the tritylation product of antibiotic PS-5.

Proteus sp. P-22 = assay: Potentiation disc assay of trityl ester (Table 14); type: cell-based; settings: for Halo of inhibition Cephaloridine added: 50 μg/ml cephaloridine in base agar
Procedure: as §2

Proteus vulgaris P-5 [4] = assay: Potentiation disc assay of trityl ester (Table 14); type: cell-based; settings: for Halo of inhibition Cephaloridine added: 50 μg/ml cephaloridine in base agar
Procedure: as §2

[5] = pH and heat stability of trityl ester of antibiotic PS-5; type: physicochemical; settings: for remaining at 0.5 h: phosphate buffer, read-out: Residual activity
Procedure: The trityl ester of antibiotic PS-5 was dissolved in one volume of methanol and then diluted with 9 volumes of distilled water as soon as possible to provide a solution of 125 CCU/ml. A tenth molar dipotassium phosphate solution was adjusted with 5 N phosphoric acid or 5 N sodium hydroxide to the indicated pH's in the range of 3-9.
To one milliliter each of the phosphate buffers, one milliliter each of the said solution of the trityl ester of antibiotic PS-5 was added and, if necessary, the pH value of the mixture was readjusted with phosphoric acid or sodium hydroxyde to the desired pH value. […]
The control solution (pH 7.0) was kept in an ice bath for the experimental period. The residual antibiotic activity was assayed by the routine disc assay method with Comamonas terrigena B-996 as the test microorganism.

Citrobacter freundii E-9 [6] = assay: Potentiation disc assay with cephaloridine (Table 10); type: cell-based; settings: for Inhibition zone With CER: 50 μg/ml cephaloridine in agar
Procedure: (§3) (A) Ten milliliters of molten nutrient agar containing 50 μg/ml of penicillin G or cephaloridine, 0.8% of Kyokuto Nutrient Broth Powder and 1.0% of Difco Bacto-Agar (pH 7.0) were seeded with the beta-lactam-resistant, beta-lactamase-producing microorganisms indicated in Tables 9 and 10, and poured in a 9-cm Petri dish to provide the bio-assay agar plate. On this assay plate, 8-mm pulp discs containing 25 μl each of antibiotic PS-5 solutions at the indicated concentrations were placed and incubated at 35° C. for 18 hours before reading the inhibition zones. The control assay plate was similarly prepared without penicillin G nor cephaloridine. As reference antibiotics, penicillin G, ampicillin, oxacillin and cefazolin were disc-assayed under the same conditions.

Enterobacter sp. E-18 = assay: as above; type: cell-based; settings: for Inhibition zone With CER: 50 μg/ml cephaloridine in agar
Procedure: as §3

Proteus vulgaris P-5 [7] = assay: as above; type: cell-based; settings: Proteus vulgaris P-5; for Inhibition zone With CER: 50 μg/ml cephaloridine in agar
Procedure: as §3

Serratia marcescens = assay: as above; type: cell-based; settings: for Inhibition zone With CER: 50 μg/ml cephaloridine in agar
Procedure: as §3

CCC1C(=O)N2C(C(=O)OC(c3ccccc3)(c3ccccc3)c3ccccc3)=C(SCCNC(C)=O)CC12 (single isomer, unassigned) [Trityl PS-5]
MIC [1]: 8.7 µg/mL (≈ 16.1 µM) | MIC [2]: 10 µg/mL (≈ 18.5 µM) | MIC (Serratia marcescens S-18): 10 µg/mL (≈ 18.5 µM) | zone of inhibition at 50 µg/mL (Citrobacter freundii E-9 [3]; E9, 18 h, Trityl PS-5 50 μg/ml, read-out: Halo of inhibition Control): 13 mm | zone of inhibition at 100 µg/mL (Citrobacter freundii E-9 [3]; E9, 18 h, Trityl PS-5 100 μg/ml, read-out: Halo of inhibition Control): 16 mm | Halo of inhibition Cephaloridine added (Citrobacter freundii E-9 [3]; Trityl PS-5 50 μg/ml): 15.5 mm | Halo of inhibition Cephaloridine added (Citrobacter freundii E-9 [3]; Trityl PS-5 100 μg/ml): 18.0 mm | zone of inhibition at 50 µg/mL (Proteus sp. P-22; 18 h, Trityl PS-5 50 μg/ml, read-out: Halo of inhibition Control): 0 mm | zone of inhibition at 100 µg/mL (Proteus sp. P-22; 18 h, Trityl PS-5 100 μg/ml, read-out: Halo of inhibition Control): 0 mm | Halo of inhibition Cephaloridine added (Proteus sp. P-22; Trityl PS-5 50 μg/ml): 11.5 mm | Halo of inhibition Cephaloridine added (Proteus sp. P-22; Trityl PS-5 100 μg/ml): 13.5 mm | zone of inhibition at 42 µg/mL (Proteus vulgaris P-5 [4]; P5, 18 h, Trityl PS-5 42 μg/ml, penicillin G series, read-out: Halo of inhibition Control): 0 mm | zone of inhibition at 50 µg/mL (Proteus vulgaris P-5 [4]; P5, 18 h, Trityl PS-5 50 μg/ml, cephaloridine series, read-out: Halo of inhibition Control): 0 mm | zone of inhibition at 100 µg/mL (Proteus vulgaris P-5 [4]; P5, 18 h, Trityl PS-5 100 μg/ml, cephaloridine series, read-out: Halo of inhibition Control): 11 mm | Halo of inhibition Penicillin G added (Proteus vulgaris P-5 [4]; Trityl PS-5 42 μg/ml, 50 μg/ml penicillin G in base agar): 27.0 mm | Halo of inhibition Cephaloridine added (Proteus vulgaris P-5 [4]; Trityl PS-5 50 μg/ml): 15.0 mm | Halo of inhibition Cephaloridine added (Proteus vulgaris P-5 [4]; Trityl PS-5 100 μg/ml): 18.0 mm | Loss of activity ([5]; aqueous solution, pH 7.5 for 90 minutes at 60° C.): no substantial loss of activity | remaining at 0.5 h ([5]; pH 3.0, 60° C. for 30 minutes, percent of control): 0% | remaining at 0.5 h ([5]; pH 4.0, 60° C. for 30 minutes): 0% | remaining at 0.5 h ([5]; pH 5.0, 60° C. for 30 minutes): 6.5% | remaining at 0.5 h ([5]; pH 6.0, 60° C. for 30 minutes): 79% | remaining at 0.5 h ([5]; pH 7.0, 60° C. for 30 minutes): 100% | remaining at 0.5 h ([5]; pH 8.0, 60° C. for 30 minutes): 100% | remaining at 0.5 h ([5]; pH 9.0, 60° C. for 30 minutes): 100%

CCC1C(=O)N2C(C(=O)O)=C(SCCNC(C)=O)CC12 (single isomer, unassigned) [Antibiotic PS-5]
zone of inhibition at 79.5 µg/mL (Citrobacter freundii E-9 [6]; E9, 18 h, PS-5 79.5 μg/ml, read-out: Inhibition zone Without CER): 16 mm | zone of inhibition at 100 µg/mL (Citrobacter freundii E-9 [6]; E9, 18 h, PS-5 100 μg/ml, read-out: Inhibition zone Without CER): 17.4 mm | zone of inhibition at 159 µg/mL (Citrobacter freundii E-9 [6]; E9, 18 h, PS-5 159 μg/ml, read-out: Inhibition zone Without CER): 17.4 mm | zone of inhibition at 318 µg/mL (Citrobacter freundii E-9 [6]; E9, 18 h, PS-5 318 μg/ml, read-out: Inhibition zone Without CER): 22.5 mm | Inhibition zone With CER (Citrobacter freundii E-9 [6]; PS-5 79.5 μg/ml): 19.4 mm | Inhibition zone With CER (Citrobacter freundii E-9 [6]; PS-5 100 μg/ml): 21.6 mm | Inhibition zone With CER (Citrobacter freundii E-9 [6]; PS-5 159 μg/ml): 22.3 mm | Inhibition zone With CER (Citrobacter freundii E-9 [6]; PS-5 318 μg/ml): 24.6 mm | Inhibition zone With CER (Enterobacter sp. E-18; PS-5 79.5 μg/ml): 17.6 mm | Inhibition zone With CER (Enterobacter sp. E-18; PS-5 100 μg/ml): 18.0 mm | Inhibition zone With CER (Enterobacter sp. E-18; PS-5 159 μg/ml): 19.4 mm | Inhibition zone With CER (Enterobacter sp. E-18; PS-5 318 μg/ml): 21.9 mm | zone of inhibition at 79.5 µg/mL (Enterobacter sp. E-18; SP.E18, 18 h, PS-5 79.5 μg/ml, read-out: Inhibition zone Without CER): 15.1 mm | zone of inhibition at 100 µg/mL (Enterobacter sp. E-18; SP.E18, 18 h, PS-5 100 μg/ml, read-out: Inhibition zone Without CER): 16.1 mm | zone of inhibition at 159 µg/mL (Enterobacter sp. E-18; SP.E18, 18 h, PS-5 159 μg/ml, read-out: Inhibition zone Without CER): 18.2 mm | zone of inhibition at 318 µg/mL (Enterobacter sp. E-18; SP.E18, 18 h, PS-5 318 μg/ml, read-out: Inhibition zone Without CER): 21 mm | zone of inhibition at 79.5 µg/mL (Proteus vulgaris P-5 [7]; P5, 18 h, PS-5 79.5 μg/ml, read-out: Inhibition zone Without CER): 12.5 mm | zone of inhibition at 100 µg/mL (Proteus vulgaris P-5 [7]; P5, 18 h, PS-5 100 μg/ml, read-out: Inhibition zone Without CER): 13.7 mm | zone of inhibition at 159 µg/mL (Proteus vulgaris P-5 [7]; P5, 18 h, PS-5 159 μg/ml, read-out: Inhibition zone Without CER): 15.2 mm | zone of inhibition at 318 µg/mL (Proteus vulgaris P-5 [7]; P5, 18 h, PS-5 318 μg/ml, read-out: Inhibition zone Without CER): 18.5 mm | Inhibition zone With CER (Proteus vulgaris P-5 [7]; PS-5 79.5 μg/ml): 21.8 mm | Inhibition zone With CER (Proteus vulgaris P-5 [7]; PS-5 100 μg/ml): 22.0 mm | Inhibition zone With CER (Proteus vulgaris P-5 [7]; PS-5 159 μg/ml): 24.0 mm | Inhibition zone With CER (Proteus vulgaris P-5 [7]; PS-5 318 μg/ml): 25.2 mm | zone of inhibition at 79.5 µg/mL (Serratia marcescens; 18 h, PS-5 79.5 μg/ml, read-out: Inhibition zone Without CER): 14.8 mm | zone of inhibition at 100 µg/mL (Serratia marcescens; 18 h, PS-5 100 μg/ml, read-out: Inhibition zone Without CER): 16.8 mm | zone of inhibition at 159 µg/mL (Serratia marcescens; 18 h, PS-5 159 μg/ml, read-out: Inhibition zone Without CER): 17 mm | zone of inhibition at 318 µg/mL (Serratia marcescens; 18 h, PS-5 318 μg/ml, read-out: Inhibition zone Without CER): 21 mm | Inhibition zone With CER (Serratia marcescens; PS-5 79.5 μg/ml): 22.3 mm | Inhibition zone With CER (Serratia marcescens; PS-5 100 μg/ml): 23.3 mm | Inhibition zone With CER (Serratia marcescens; PS-5 159 μg/ml): 24.8 mm | Inhibition zone With CER (Serratia marcescens; PS-5 318 μg/ml): 26.1 mm
